Experimental data from publication PMC7503281, “The Structure of Clostridioides difficile SecA2 ATPase Exposes Regions Responsible for Differential Target Recognition of the SecA1 and SecA2-Dependent Systems” (International Journal of Molecular Sciences, 2020).

Molecular target: T1, CDSecA2 (Clostridioides difficile, UniProt Q183M9)
T1 construct: gene secA2; pMCSG7, E. coli BL21(DE3); His tag cut by TEV, extra N-terminal SNAAA kept; monomer in crystal
Assay: X-ray crystallography (cocrystallization)
Format: binding
Settings: 2 mM ATP-γ-S, 4 mM MgCl2, pH 8.3, 20 °C; active site between NBD1 and NBD2, Walker A/B

T1 sequence (Q183M9 whole entry): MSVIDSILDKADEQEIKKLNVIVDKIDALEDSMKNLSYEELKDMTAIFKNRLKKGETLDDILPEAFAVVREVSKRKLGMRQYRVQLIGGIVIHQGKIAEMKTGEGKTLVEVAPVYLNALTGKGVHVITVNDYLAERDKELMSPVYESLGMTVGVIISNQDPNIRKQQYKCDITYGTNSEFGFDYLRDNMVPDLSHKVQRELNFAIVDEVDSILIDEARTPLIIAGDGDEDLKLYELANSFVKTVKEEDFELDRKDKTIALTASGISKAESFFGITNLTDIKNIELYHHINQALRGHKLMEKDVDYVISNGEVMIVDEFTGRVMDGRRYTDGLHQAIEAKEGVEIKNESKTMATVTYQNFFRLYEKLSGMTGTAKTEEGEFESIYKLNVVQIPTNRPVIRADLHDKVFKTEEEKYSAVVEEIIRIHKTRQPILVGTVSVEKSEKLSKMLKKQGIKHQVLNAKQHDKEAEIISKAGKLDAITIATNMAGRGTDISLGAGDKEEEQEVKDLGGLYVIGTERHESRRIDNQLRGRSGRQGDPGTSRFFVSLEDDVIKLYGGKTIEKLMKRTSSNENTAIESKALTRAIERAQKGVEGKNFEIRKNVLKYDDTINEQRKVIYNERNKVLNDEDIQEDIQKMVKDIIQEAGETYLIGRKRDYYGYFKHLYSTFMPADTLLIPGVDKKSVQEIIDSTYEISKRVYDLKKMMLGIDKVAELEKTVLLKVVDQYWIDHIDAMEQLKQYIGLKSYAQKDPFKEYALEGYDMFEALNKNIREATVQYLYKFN

## Nc1ncnc2c1ncn2[C@@H]1O[C@H](COP(=O)(O)OP(=O)(O)OP(O)(O)=S)[C@@H](O)[C@H]1O [ATP-γ-S, adenosine-5′-(γ-thio)-triphosphate]
  X-ray crystallography (cocrystallization): the electron density map for the ATP-γ-S ligand unambiguously positioned it in the active site
